Measurements reported in article PMC11413964, “Discovery of 1,3-disubstituted prop-2-en-1-one derivatives as inhibitors of neutrophilic inflammation via modulation of MAPK and Akt pathways” (Journal of Enzyme Inhibition and Medicinal Chemistry, 2024).

Columns and labels:
[1] = tested on: fMLF/cytochalasin B (CB)-activated human neutrophils; test: Superoxide anion generation (ferricytochrome c reduction) in fMLF/CB-activated human neutrophils; assay type: cell-based; settings: Neutrophil, fMLF/CB stimulation, mean ± SEM (n = 3–5); for inhibition at 10 µM: 10 μM compound
Experimental: (§1) The study involving neutrophils was approved by the Institutional Review Board of Chang Gung Memorial Hospital under IRB number: 201902217A3 and was conducted in accordance with the principles of the Declaration of Helsinki. Healthy volunteers aged 20–35 years provided signed informed consents for blood collection. Isolation of neutrophils was done using dextran sedimentation, Ficoll-Hypaque density gradient centrifugation, and hypotonic haemolysis. For the anti-inflammatory studies, neutrophils were suspended in Hank’s balanced salt solution (HBSS) containing 1 mM Ca^2+ at a pH of 7.4[72].
The reduction of ferricytochrome c was utilised to measure the production of SO anions in activated human neutrophils. […] The neutrophils were then stimulated with fMLF (0.1 μM) and CB (1 μg/mL) for 13 min. […] LY294002 was used as a positive control.

[2] = tested on: fMLF/cytochalasin B (CB)-activated human neutrophils; test: Elastase release in fMLF/CB-activated human neutrophils; assay type: cell-based; settings: Homo sapiens, Neutrophil, fMLF/CB stimulation, mean ± SEM (n = 3–5); for inhibition at 10 µM: 10 μM compound
Experimental: as §1
Neutrophils were subsequently stimulated with fMLF (0.1 μM) and CB (0.5 μg/mL) for 13 min. […] LY294002 was used as a positive control.

Compound | melting point | inhibition at 10 µM [1] | IC50 [1] | inhibition at 10 µM [2] | IC50 [2]
O=C(/C=C/c1ccc2ccccc2n1)c1ccccc1 [Compound 28, (E)-1-Phenyl-3-(quinolin-2-yl)prop-2-en-1-one] | 118 to 120 °C | 106 ± 1.73% | 1.73 ± 0.07 µM | 99.1 ± 7.32% | 2.17 ± 0.3 µM
COc1ccc(/C=C/C(=O)C(C)(C)C)cc1F [Compound 19, (E)-1-(3-Fluoro-4-methoxyphenyl)-4,4-dimethylpent-1-en-3-one] | 84.6 °C | 2.87 ± 2.8% | – | 3.9 ± 1.68% | –
CC(C)(C)C(=O)/C=C/c1ccc(Br)s1 [Compound 24, (E)-1-(5-Bromothiophen-2-yl)-4,4-dimethylpent-1-en-3-one] | – | 13 ± 6.88% | – | 25.7 ± 5.36% | –
COc1cccc(C(=O)/C=C/c2cc(F)cc(F)c2)c1 [Compound 24a, (E)-3-(3,5-Difluorophenyl)-1-(3-methoxyphenyl)prop-2-en-1-one] | 95.2 to 97.2 °C | 3.12 ± 5.02% | – | 37.1 ± 7.65% | –
Cc1ccc(/C=C/C(=O)C(C)(C)C)cc1 [Compound 10, (E)-4,4-Dimethyl-1-(p-tolyl)pent-1-en-3-one] | 79 to 80 °C | 8.56 ± 3.04% | – | 3.91 ± 2.82% | –
CC(C)(C)C(=O)/C=C/c1ccc(C(F)(F)F)cc1 [Compound 4, (E)-4,4-Dimethyl-1-(4-(trifluoromethyl)phenyl)pent-1-en-3-one] | 70 to 71 °C | 11.7 ± 5.39% | – | 1.18 ± 0.98% | –
COc1ccccc1C(=O)/C=C/c1cccc(Cl)c1 [Compound 21a, (E)-3-(3-Chlorophenyl)-1-(2-methoxyphenyl)prop-2-en-1-one] | 96 to 98 °C | 89.9 ± 2.38% | 3.79 ± 0.69 µM | 80.4 ± 4.44% | 5.63 ± 0.51 µM
COc1ccc(C(=O)/C=C/c2ccc([N+](=O)[O-])cc2)cc1 [Compound 7a, (E)-1-(4-Methoxyphenyl)-3-(4-nitrophenyl)prop-2-en-1-one] | – | 59.7 ± 1.41% | 6.9 ± 0.67 µM | 63.8 ± 6.59% | 6.33 ± 1.15 µM
CCOc1ccccc1C(=O)/C=C/c1ccc(Br)s1 [Compound 25, (E)-3-(5-Bromothiophen-2-yl)-1-(2-ethoxyphenyl)prop-2-en-1-one] | – | 67.8 ± 3.19% | 6.21 ± 0.36 µM | 26.9 ± 5.5% | –
COc1ccc(C(=O)/C=C/c2ccc(Cl)cc2)cc1 [Compound 14a, (E)-3-(4-Chlorophenyl)-1-(4-methoxyphenyl)prop-2-en-1-one] | – | 58.9 ± 3.26% | 6.09 ± 7.19 µM | 5.49 ± 4.32% | –
COc1ccc(C(=O)/C=C/c2cccc(Cl)c2)cc1 [Compound 22a, (E)-3-(3-Chlorophenyl)-1-(4-methoxyphenyl)prop-2-en-1-one] | 97 to 99 °C | 65.2 ± 3.73% | 6.6 ± 0.6 µM | 36.1 ± 6.48% | –
CC(C)(C)C(=O)/C=C/c1ccc2ccccc2n1 [Compound 27, (E)-4,4-Dimethyl-1-(quinolin-2-yl)pent-1-en-3-one] | – | 2.26 ± 0.97% | – | 5.21 ± 2.72% | –
O=C(/C=C/c1ccc(Cl)cc1)c1ccccc1 [Compound 2, (E)-3-(4-Chlorophenyl)-1-phenylprop-2-en-1-one] | – | 94.7 ± 3.22% | 3.01 ± 0.68 µM | 62 ± 6.31% | 7.78 ± 0.96 µM
CC(C)(C)C(=O)/C=C/c1ccc(C#N)cc1 [Compound 9, (E)-4-(4,4-Dimethyl-3-oxopent-1-en-1-yl)benzonitrile] | 131 to 133 °C | 20.9 ± 5.55% | – | 3.76 ± 2.69% | –
COc1ccccc1C(=O)/C=C/c1ccc([N+](=O)[O-])cc1 [Compound 5a, (E)-1-(2-Methoxyphenyl)-3-(4-nitrophenyl)prop-2-en-1-one] | 116.5 to 118 °C | 102 ± 1.92% | 3.77 ± 0.33 µM | 75.6 ± 5.02% | 6.25 ± 0.52 µM
O=C(/C=C/c1ccc(Cl)cc1)c1ccc2ccccc2c1 [Compound 10a, (E)-3-(4-Chlorophenyl)-1-(naphthalen-2-yl)prop-2-en-1-one] | 162 to 164 °C | 14.2 ± 6.87% | – | 33.2 ± 6.47% | –
CC(C)(C)C(=O)/C=C/c1ccc(Cl)cc1 [Compound 1, (E)-1-(4-Chlorophenyl)-4,4-dimethylpent-1-en-3-one] | 85 to 85.5 °C | 23.4 ± 7.96% | – | 8.43 ± 4.28% | –
COc1ccc(C(=O)/C=C/c2ccccc2Cl)cc1OC [Compound 20a, (E)-3-(2-Chlorophenyl)-1-(3,4-dimethoxyphenyl)prop-2-en-1-one] | – | 95.6 ± 1.14% | 3.55 ± 0.56 µM | 67.7 ± 5.37% | 6.79 ± 0.72 µM

Compound | melting point | inhibition at 10 µM [1] | IC50 [1] | inhibition at 10 µM [2] | IC50 [2]
COc1cccc(C(=O)/C=C/c2ccccc2Cl)c1 [Compound 18a, (E)-3-(2-Chlorophenyl)-1-(3-methoxyphenyl)prop-2-en-1-one] | 117 °C | 47.6 ± 5.41% | – | 31.3 ± 7.29% | –
COc1ccc(C(=O)/C=C/c2ccc([N+](=O)[O-])cc2)cc1OC [Compound 8a, (E)-1-(3,4-Dimethoxyphenyl)-3-(4-nitrophenyl)prop-2-en-1-one] | 189 to 191 °C | 81 ± 2.57% | 2.72 ± 0.35 µM | 56.9 ± 3.22% | 8.31 ± 0.78 µM
CC(C)(C)C(=O)/C=C/c1cccc([N+](=O)[O-])c1 [Compound 8, (E)-4,4-Dimethyl-1-(3-nitrophenyl)pent-1-en-3-one] | 92 to 93 °C | 10.3 ± 2.86% | – | 4.89 ± 0.91% | –
CC1(C(=O)/C=C/c2ccc([N+](=O)[O-])cc2)CC1 [Compound 2a, (E)-1-(1-Methylcyclopropyl)-3-(4-nitrophenyl)prop-2-en-1-one] | 133.1 °C | 8.75 ± 5.03% | – | 8.39 ± 2.25% | –
COc1ccc(C(=O)/C=C/c2ccc(Cl)cc2)cc1OC [Compound 16a, (E)-3-(4-Chlorophenyl)-1-(3,4-dimethoxyphenyl)prop-2-en-1-one] | – | 68.2 ± 7.74% | 5.53 ± 1.48 µM | 22.9 ± 7.11% | –
COc1ccc(/C=C/C(=O)C(C)(C)C)c(F)c1F [Compound 22, (E)-1-(2,3-Difluoro-4-methoxyphenyl)-4,4-dimethylpent-1-en-3-one] | 128 to 129 °C | 31.4 ± 3.36% | – | 4.84 ± 2.66% | –
Cc1ccccc1C(=O)/C=C/c1ccc([N+](=O)[O-])cc1 [Compound 4a, (E)-3-(4-Nitrophenyl)-1-(o-tolyl)prop-2-en-1-one] | 128 to 129 °C | 100 ± 2.65% | 4.55 ± 0.1 µM | 63.8 ± 5.98% | 7.22 ± 1.16 µM
O=C(/C=C/c1ccc([N+](=O)[O-])cc1)c1ccccn1 [Compound 7, (E)-3-(4-Nitrophenyl)-1-(pyridin-2-yl)prop-2-en-1-one] | 153 to 155 °C | 94.5 ± 2.89% | 4.35 ± 0.3 µM | 78.1 ± 0.36% | 6.17 ± 0.1 µM
COc1ccc(C(=O)/C=C/c2ccc(Cl)cc2)c(OC)c1 [Compound 15a, (E)-3-(4-Chlorophenyl)-1-(2,4-dimethoxyphenyl)prop-2-en-1-one] | – | 13.9 ± 2.43% | – | 4.42 ± 3.9% | –
CC(C)(C)Oc1ccc(/C=C/C(=O)c2ccco2)cc1 [Compound 12, (E)-3-(4-(tert-Butoxy)phenyl)-1-(furan-2-yl)prop-2-en-1-one] | 132.8 to 134.8 °C | 27.3 ± 2.07% | – | 19.2 ± 4.05% | –
CC(C)(C)Oc1ccc(/C=C/C(=O)C(C)(C)C)cc1 [Compound 11, (E)-1-(4-(tert-Butoxy)phenyl)-4,4-dimethylpent-1-en-3-one] | 110 to 111 °C | 16.8 ± 3.85% | – | 12.1 ± 3.43% | –
COc1ccc(/C=C/C(=O)c2ccccc2C)cc1F [Compound 20, (E)-3-(3-Fluoro-4-methoxyphenyl)-1-(o-tolyl)prop-2-en-1-one] | 69 to 70 °C | 49.8 ± 5.82% | – | 10.6 ± 2.28% | –
COc1ccccc1C(=O)/C=C/c1ccccc1Cl [Compound 17a, (E)-3-(2-Chlorophenyl)-1-(2-methoxyphenyl)prop-2-en-1-one] | 60 to 62 °C | 99.05 ± 0.64% | 2.95 ± 0.4 µM | 75.8 ± 6.19% | 5.36 ± 0.67 µM
O=C(/C=C/c1ccc([N+](=O)[O-])cc1)C1CCCCC1 [Compound 3a, (E)-1-Cyclohexyl-3-(4-nitrophenyl)prop-2-en-1-one] | 132 to 134 °C | 11.4 ± 1.6% | – | 11.9 ± 4.68% | –
COc1cccc(C(=O)/C=C/c2ccc(Cl)cc2)c1 [Compound 13a, (E)-3-(4-Chlorophenyl)-1-(3-methoxyphenyl)prop-2-en-1-one] | – | 101.7 ± 0.44% | 1.37 ± 0.73 µM | 91.9 ± 1.63% | 3.3 ± 0.68 µM
O=c1cc(N2CCOCC2)oc2c(-c3ccccc3)cccc12 [LY294002, reference compound] | – | 102 ± 2.64% | – | 82.5 ± 3.76% | –
COc1ccc(C(=O)/C=C/c2ccccc2Cl)cc1 [Compound 19a, (E)-3-(2-Chlorophenyl)-1-(4-methoxyphenyl)prop-2-en-1-one] | – | 80.2 ± 1.98% | 5.23 ± 0.62 µM | 37.6 ± 3.54% | –
